Test results reported in patent US4444771A, “Azeto triazolo pyrazine β-lactam antibacterial agents” (Beecham Group Limited, priority 1980, dated 1984).
Counter-ions that a name gives are not always drawn.

Tests used:
Assay type in all cases: cell-based
[1] = tested on: S. aureus Oxford; test: Antibacterial activity, minimum inhibitory concentration, S. aureus Oxford; settings: Staphylococcus aureus, serial dilution, DST agar + 10% horse blood, 10^-2 dilution inoculum, 37°, 18 h
Method: (§1) Minimum Inhibitory Concentration μg/ml^a
(§2) ^a Determined by serial dilution on DST agar containing 10% horse
(§3) blood using an inoculum of 0.001 ml of a 10^-2 dilution for
(§4) Grampositive bacteria or a 10^-4 dilution for Gramnegative organisms.
(§5) MIC values were read after incubation at 37° for eighteen hours.

[2] = tested on: S. pyogenes; test: Antibacterial activity, minimum inhibitory concentration, S. pyogenes; settings: Streptococcus pyogenes, serial dilution, DST agar + 10% horse blood, 10^-2 dilution inoculum, 37°, 18 h
Method: as §1, §2, §3, §4, §5

[3] = tested on: S. pneumoniae; test: Antibacterial activity, minimum inhibitory concentration, S. pneumoniae; settings: Streptococcus pneumoniae, serial dilution, DST agar + 10% horse blood, 10^-2 dilution inoculum, 37°, 18 h
Method: as §1, §2, §3, §4, §5

[4] = tested on: P. mirabilis; test: Antibacterial activity, minimum inhibitory concentration, P. mirabilis; settings: Proteus mirabilis, serial dilution, DST agar + 10% horse blood, 10^-4 dilution inoculum, 37°, 18 h
Method: as §1, §2, §3, §4, §5

[5] = tested on: S. typhimurium; test: Antibacterial activity, minimum inhibitory concentration, S. typhimurium; settings: Salmonella enterica, serial dilution, DST agar + 10% horse blood, 10^-4 dilution inoculum, 37°, 18 h
Method: as §1, §2, §3, §4, §5

[6] = tested on: S. faecalis; test: Antibacterial activity, minimum inhibitory concentration, S. faecalis; settings: Enterococcus faecalis, serial dilution, DST agar + 10% horse blood, 10^-2 dilution inoculum, 37°, 18 h
Method: as §1, §2, §3, §4, §5

[7] = tested on: S. aureus Russell; test: Antibacterial activity, minimum inhibitory concentration, S. aureus Russell; settings: Staphylococcus aureus; S. aureus Russell (lactamase-producing benzylpenicillin-resistant strain); serial dilution, DST agar + 10% horse blood, 10^-2 dilution inoculum, 37°, 18 h
Method: as §1, §2, §3, §4, §5
^b lactamase-producing benzylpenicillinresistant strain.

[8] = tested on: K. aerogenes; test: Antibacterial activity, minimum inhibitory concentration, K. aerogenes; settings: Klebsiella aerogenes, serial dilution, DST agar + 10% horse blood, 10^-4 dilution inoculum, 37°, 18 h
Method: as §1, §2, §3, §4, §5

[9] = tested on: E. coli; test: Antibacterial activity, minimum inhibitory concentration, E. coli; settings: Escherichia coli, serial dilution, DST agar + 10% horse blood, 10^-4 dilution inoculum, 37°, 18 h
Method: as §1, §2, §3, §4, §5

[10] = tested on: B. subtilis; test: Antibacterial activity, minimum inhibitory concentration, B. subtilis; settings: Bacillus subtilis, serial dilution, DST agar + 10% horse blood, 10^-2 dilution inoculum, 37°, 18 h
Method: as §1, §2, §3, §4, §5

SMILES	MIC [1]	MIC [2]	MIC [3]	MIC [4]	MIC [5]	MIC [6]	MIC [7]	MIC [8]	MIC [9]	MIC [10]
CC1=C(C(=O)O)N2C(=O)[C@H](NC(=O)COc3ccccc3)[C@@H]2c2cnnn21 (relative stereo) [Compound 15, (4bRS,5RS) 5,6-Dihydro-9-methyl-6-oxo-5-phenoxyacetamido-4bH-azeto-[2,1-c]v-triazolo-[1,5-a]-pyrazine-8-carboxylic acid]	25 µg/mL	5 µg/mL	2.5 µg/mL	> 100 µg/mL	> 100 µg/mL	> 100 µg/mL	100 µg/mL	> 100 µg/mL	> 100 µg/mL	5 µg/mL
CC1=C(C(=O)O)N2C(=O)[C@H](NC(=O)C(C(=O)Oc3ccccc3)c3ccccc3)[C@@H]2c2cnnn21 (relative stereo) [Compound 22, (4bRS,5RS) 5,6-Dihydro-9-methyl-6-oxo-5-[DL-α-phenoxycarbonylphenylacetamido]-4bH-azeto[2.1-c]-v-triazolo[1.5-a]-pyrazine-8-carboxylic acid]	> 100 µg/mL	–	–	100 µg/mL	50 µg/mL	> 100 µg/mL	> 100 µg/mL	> 100 µg/mL	100 µg/mL	100 µg/mL
CC(=O)N[C@H]1C(=O)N2C(C(=O)O)=C(C)n3nncc3[C@@H]12 (relative stereo) [Compound 35, (4bRS,5RS) 5-Acetamido-5,6-dihydro-9-methyl-6-oxo-4bH-azeto-[2,1-c]-v-triazolo-pyrazine-8-carboxylic acid]	100 µg/mL	2.5 µg/mL	5 µg/mL	> 100 µg/mL	100 µg/mL	> 100 µg/mL	> 100 µg/mL	> 100 µg/mL	> 100 µg/mL	5 µg/mL
CC1=C(C(=O)O)N2C(=O)[C@H](NC(=O)Cc3cccs3)[C@@H]2c2cnnn21 (relative stereo) [Compound 55, (4bRS,5RS) 5,6-Dihydro-9-methyl-6-oxo-5-(2-thienylacetamido)-4bH-azeto-[2,1-c]-v-triazolo-[1,5-a]-pyrazine-8-carboxylic acid, p-toluidine salt)]	10 µg/mL	0.2 µg/mL	2.5 µg/mL	10 µg/mL	–	25 µg/mL	100 µg/mL	100 µg/mL	–	0.5 µg/mL
CC1=C(C(=O)O)N2C(=O)C(NC(=O)[C@H](N)c3ccccc3)C2c2cnnn21 (stereo partly drawn) [Compound 28, (4bRS,5RS)-5,6-Dihydro-9-methyl-6-oxo-5-D-α-phenylglycylamino-4bH-azeto-[2,1-c]-v-triazolo[1,5-a]pyrazine-8-carboxylic acid, p-toluidine salt]	100 µg/mL	2.5 µg/mL	10 µg/mL	> 100 µg/mL	> 100 µg/mL	> 100 µg/mL	> 100 µg/mL	> 100 µg/mL	> 100 µg/mL	10 µg/mL
CC1=C(C(=O)O)N2C(=O)[C@H](NC(=O)[C@H](O)c3ccccc3)[C@@H]2c2cnnn21 [Compound 39, (4bR,5R) 5,6-Dihydro-5-D-α-hydroxyphenylacetamido-9-methyl-6-oxo-4bH-azeto-[2,1-c]-v-triazolo-[1,5-a]-pyrazine-8-carboxylic acid]	> 100 µg/mL	> 100 µg/mL	> 100 µg/mL	> 100 µg/mL	> 100 µg/mL	> 100 µg/mL	> 100 µg/mL	> 100 µg/mL	> 100 µg/mL	100 µg/mL
CC1=C(C(=O)O)N2C(=O)[C@@H](NC(=O)[C@H](O)c3ccccc3)[C@H]2c2cnnn21 [Compound 40, (4bS,5S)-5,6-Dihydro-5-D-α-hydroxyphenylacetamido-9-methyl-6-oxo-4bH-azeto-[2,1-c]-v-triazolo-[1,5-a]-pyrazine-8-carboxylic acid]	25 µg/mL	50 µg/mL	≤ 0.2 µg/mL	10 µg/mL	25 µg/mL	100 µg/mL	100 µg/mL	100 µg/mL	> 100 µg/mL	0.5 µg/mL
CC1=C(C(=O)O)N2C(=O)[C@@H](NC(=O)COc3ccccc3)[C@H]2c2cnnn21 [Compound 42, (4bS,5S)-5,6-Dihydro-9-methyl-6-oxo-5-phenoxyacetamido-4bH-azeto-[2,1-c]-v-triazolo-[1,5-a]-pyrazine-8-carboxylic acid]	–	2.5 µg/mL	5 µg/mL	> 50 µg/mL	> 50 µg/mL	50 µg/mL	> 50 µg/mL	> 50 µg/mL	> 50 µg/mL	0.5 µg/mL
